Data: patent publication US20260232608A1, “AMINOTHIOLS FOR THE TREATMENT OF CONDITIONS CHARACTERIZED BY PROTEIN MISFOLDING OR AGGREGATION, MITOCHONDRIAL DYSFUNCTION, OR CHRONIC INFLAMMATION” (Obvia Pharmaceuticals, Ltd., priority 2023, published 2026)
“Also recorded” adds a separate entry of the source.

What was measured:
[1] = 1H NMR stability of PrC-210 in deuterated water under pH titration; assay type: physicochemical
Description: (§1) We established the chemical structure profile of PrC-210 using Nuclear Magnetic Resonance (NMR) spectroscopy experiments. […] This structural stability of the PrC-210 mono-thiol form in this pH range remained for at least the observed 24 hours. […] In our pH titrations between pH 9.0 and 13.0, we saw clear structural changes to PrC-210; from these progressive changes, we calculated that the pKas of the two PrC-210 amines are all substantially above the pH (pH 7.2) of physiological conditions (FIG. 3).

C57 mice = assay: EAE model, paralysis score after immunization with MOG peptide; assay type: in vivo, mouse
Description: To show, that PrC-210 suppresses neuroinflammation which is caused by an autoimmune induction of the disease, PrC-210 was applied 24 hours before immunization of C57 mice against MOG peptide (FIG. 13A), and immediately after first paralysis symptoms developed from the autoimmunization against myelin.

[2] = within its therapeutic window; cited from earlier work
[3] = pKa of the two PrC-210 amines from NMR pH titration; assay type: physicochemical; conditions: pH titrations between pH 9.0 and 13.0; FIG. 3 legend: 3 pH units above physiological pH
Description: as §1

[4] = Pharmacokinetics study with [14]C-labeled PrC-210, intravenous, male rats; assay type: in vivo; conditions: after 48 hr
Excerpt: We were also interested to see whether PrC-210-cysteine disulfide formation is transient or permanent; permanent PrC-210 hetero-disulfide formation with cellular proteins would be expected to have an impact on protein function and could translate into unwanted, toxic, side effects and should be seen as PrC-210 residues showing up as urinary or fecal metabolites. […] C labeled PrC-210, we found only minimal metabolism of PrC-210 (1.07%) after 48 hr (FIG. 7, unpublished data). It is well described that i) disulfide binding is reversible (see, e.g., Koji Aoyama, Int. J. Mol. Sci. 2021, 22 (9), 5010) and ii) that there are also two highly efficient thiol reducing systems in the cell (see, e.g., Cumming et al., The Journal of Biological Chemistry vol. 279, No. 21, Issue of May 21, pp. 21749-21758, 2004), which reduce disulfide bonds between glutathione and proteins in non-oxidative stress situations (see, e.g., Koji Aoyama, Int. J. Mol. Sci. 2021, 22 (9), 5010). Based upon both our experimental findings and the published literature, it would then be logical that PrC-210 disulfide bonds with proteins would be governed by the same chemical and enzymatic processes.

Cytochrome C = Cytochrome C release in mouse heart after 8.68 Gy, PrC-210 given 24 hours after irradiation; assay type: in vivo; conditions: PrC-210 0.3 MTD given 24 hours post-irradiation
Description: Different from the first peak after 12 hours, this peak is not due to DNA damage and activation of the intrinsic apoptotic pathway, as there is neither an associated p53 nor 8-oxo-dG increase at 48 hours post-irradiation (data not shown), nor an activation of the intrinsic apoptotic pathway (FIG. 11B). This peak represents a massive damage of complex IV of the respiratory chain, which is located at the inner mitochondrial membrane. […] This discovery teaches us, that PrC-210 enters mitochondria and protects the proteins and lipids of the mitochondrial membranes against insults, insults which result in the release of cytochrome C. This invention applies to all diseases which are caused by damage of the mitochondria, such as aging and all age-related diseases, neurodegenerative diseases, diseases of the cardio-vascular system, such as arteriosclerosis, damage of the heart valves or main arteries, and in general to diseases caused by damage of the mitochondria membranes, the mitochondria DNA and proteins.

[5] = 1H NMR stability / thiol reactivity of PrC-210 with ammonium acetate (disulfide formation); assay type: physicochemical
[6] = Consumption of PrC-210 thiol by hydrogen peroxide, with or without ammonium acetate; assay type: physicochemical; conditions: pH 7
Description: We believe that the increased reactivity of the thiol in the presence of negative charges, such as ammonium acetate, also occurs when PrC-210-thiol is in close proximity to other reactive structures, such as hydrogen peroxide. We have studied hydrogen peroxide, as it is a non-radical oxygen species with a much longer half-life than superoxide. We added hydrogen peroxide to an aqueous 5 mM solution of PrC-210 thiol at pH 7.

Caspase 8, Caspase 3/7 = assay: Apoptosis markers in mice irradiated with 8.68 Gy, PrC-210 given before irradiation; assay type: in vivo, mouse
Description: To examine PrC-210-conferred protection in an animal model, we irradiated mice with 8.68 Gy and treated them with a 0.5MTD dose of PrC-210 30 minutes before irradiation. Normally, lethal radiation with 8.68 Gy leads to massive DNA damage and activation of the intrinsic apoptotic pathway. […] This means that the radiation insult didn't trigger a significant activation of the intrinsic apoptotic pathway nor did it trigger a mitotic arrest with p53 activation. […] This apoptotic suppression and protection lasted for the entire observation time of six days, which is a sign, that PrC-210 was still present after six days. When we looked at mouse plasma in the same experiment, we saw the same 6 days apoptotic suppression as in the brain in caspase 3/7 levels (FIG. 9F).

DBA/1J mice = assay: Paw swelling in DBA/1J mice immunized against collagen III; assay type: in vivo, mouse
Excerpt: To show further, that this suppression of chronic inflammation applies generally to other organs than the brain, DBA/1J mice immunized against collagen III where treated systemically and topically with PrC-210.

SOD1^G93A mice = assay: Body weight of SOD1G93A ALS mice; assay type: in vivo, mouse; conditions: systemic PrC-210 0.1 MTD, IP
Excerpt: This experiment was designed to illuminate whether PrC-210 is able to stop the progression of diseases which are based on protein aggregation, such as Amyotrophic Lateral Sclerosis (ALS). […] Weight loss was progressive and was in exponential decline along with onset of ALS motor symptoms. […] As ALS pathology is based upon protein aggregation, the findings in this experiment support our inventive concept that PrC-210 is able to suppress protein misfolding and thereby suppress the pathology of these diseases. This invention applies to all neuronal, organ specific and systemic diseases which are caused by protein aggregations, such as neurodegenerative diseases, local and systemic amyloidosis, Type II diabetes, cataract of the eye, etc.

[7] = tested on: caspase 1, complement 3 (C3); assay: Inflammation markers in mouse brain after 8.68 Gy, PrC-210 given 24 hours after irradiation; assay type: in vivo, ICR mice; conditions: 8.68 Gy whole-body, 0.3 MTD i.p. 24 hours after irradiation
Description: To visualize the effect of radiation on the immune response of the mouse brain, ICR mice received 8.68 Gy whole-body radiation (FIG. 10) at Time “0.” O.3MTD, i.p. PrC-210 was administered 24 hours after irradiation. […] The same applied to the inflammation marker, complement 3 (C3) (FIG. 12B). […] Most important, this suppression was a direct suppression of the immune response and was not an indirect suppression through protection of proteins and lipids against damage. Radiation-induced protein damage would have triggered an apoptotic response, as it can be seen in the second peak of caspase 3/7 in FIG. 12C. Therefore, this experiment teaches that PrC-210 is able to enter the brain and directly suppresses post-irradiation inflammation.

[8] = 0.5 MTD PrC-210 before irradiation

Question: Which “stability at high pH after 72 hours (1H NMR)” value ([1]; deuterated water, pH 9.0, 72 hrs) does the source give for CNCC(CS)CNC [PrC-210] here?
Answer: significant change; also recorded: some instability

Question: And the “effect of the thiol blocker TCEP on PrC-210 stability” value ([1]; water, pH 9.0, 72 hr, TCEP added, data not shown)?
Answer: doesn't influence the PrC-210 stability

Question: What about the “development and severity of paralysis symptoms” value (C57 mice; twice weekly intraperitoneal PrC-210 started 24 hours before immunization with MOG peptide) of the same compound?
Answer: significantly suppressing

Question: And the “development and severity of paralysis symptoms” value (C57 mice; twice weekly intraperitoneal PrC-210 started when first paralysis symptoms were observed)?
Answer: significantly suppressing

Question: What about the toxic side effects [2] of the same compound?
Answer: no toxic side effects

Question: And the “pKas of the two amines of PrC-210” value [3]?
Answer: > 7.2

Question: What about the “metabolism of PrC-210” value [4] of the same compound?
Answer: 1.07%

Question: What about the “cytochrome C release in heart muscle (second peak, 48 hours post-irradiation)” value (Cytochrome C) of the same compound?
Answer: suppress cytochrome C release to background

Question: And the half-life ([5]; aqueous solution with ammonium acetate, ammonium acetate added to aqueous PrC-210 mono-thiol solution, pH 7.2 (FIG. 6A))?
Answer: 3.1 h

Question: And the “stability of PrC-210 with ammonium acetate and TCEP (1H NMR)” value ([5]; deuterated water with ammonium acetate and thiol blocker TCEP, pH 7.0, 24 hours)?
Answer: remains stable

Question: What about the “structural change of PrC-210 with ammonium acetate (1H NMR)” value ([5]; deuterated water with ammonium acetate, pH 7.0, 1 hour and 24 hours) of the same compound?
Answer: substantial structural changes within hours

Question: What about the “PrC-210 half-life in water” value ([5]; water, previously observed) of the same compound?
Answer: days

Question: And the “effect of ammonium acetate on hydrogen peroxide consumption of PrC-210 thiol” value ([6]; ammonium acetate (5 mM) added seconds before hydrogen peroxide (0.5 mM), 5 mM PrC-210 thiol)?
Answer: significant enhancement; also recorded: significantly enhanced

Question: What about the “consumption of free PrC-210 thiol by hydrogen peroxide” value ([6]; aqueous 5 mM PrC-210 thiol) of the same compound?
Answer: dose-dependent consumption

Question: What about the “Caspase 3/7 level in mouse plasma” value (Caspase 8, Caspase 3/7; 0.5 MTD PrC-210 30 min before irradiation) of the same compound?
Answer: suppressed to background

Question: What about the “duration of apoptotic suppression and protection in brain” value (Caspase 8, Caspase 3/7; 0.5 MTD PrC-210, entire observation time) of the same compound?
Answer: six

Question: What about the “duration of apoptotic suppression (caspase 3/7) in mouse plasma” value (Caspase 8, Caspase 3/7; 0.5 MTD PrC-210, same experiment) of the same compound?
Answer: 6 days

Question: What about the “Caspase 3/7 level in mouse brain” value (Caspase 8, Caspase 3/7; [8]) of the same compound?
Answer: suppressed to background

Question: What about the “Caspase 8 level in mouse brain” value (Caspase 8, Caspase 3/7; [8]) of the same compound?
Answer: suppressed to background

Question: What about the swelling of paws (DBA/1J mice; 370 mM PrC-210 applied topically, started at paw swelling score higher than 10) of the same compound?
Answer: significantly reduced

Question: What about the swelling of paws (DBA/1J mice; twice weekly intraperitoneal injection of 0.075 MTD PrC-210, started with first paw symptoms) of the same compound?
Answer: significantly reduced

Question: What about the “body weight / weight loss” value (SOD1^G93A mice) of the same compound?
Answer: immediate plateau in body weight loss

Question: What about the “inflammation marker complement 3 (C3) in mouse brain” value [7] of the same compound?
Answer: significantly suppressed

Question: What about the “inflammasome marker caspase 1 in mouse brain” value ([7]; starting eight days after radiation) of the same compound?
Answer: significantly suppressed
